Source: patent publication US20230068456A1, “REAL-TIME MONITORING OF IN VIVO FREE RADICAL SCAVENGERS THROUGH HYPERPOLARIZED N-ACETYL CYSTEINE ISOTOPES” (THE UNITED STATES OF AMERICA, AS REPRESENTED BY THE …, priority 2020, published 2023)

Columns and labels:
[1] = molecular target: T1, acylase 1 (Homo sapiens, UniProt Q03154); assay: In vitro enzymatic assay of hyperpolarized NAC incubated with acylase 1 (1T NMR); format: biochemical; settings: without inhibitor
T1 sequence (Q03154 1-408): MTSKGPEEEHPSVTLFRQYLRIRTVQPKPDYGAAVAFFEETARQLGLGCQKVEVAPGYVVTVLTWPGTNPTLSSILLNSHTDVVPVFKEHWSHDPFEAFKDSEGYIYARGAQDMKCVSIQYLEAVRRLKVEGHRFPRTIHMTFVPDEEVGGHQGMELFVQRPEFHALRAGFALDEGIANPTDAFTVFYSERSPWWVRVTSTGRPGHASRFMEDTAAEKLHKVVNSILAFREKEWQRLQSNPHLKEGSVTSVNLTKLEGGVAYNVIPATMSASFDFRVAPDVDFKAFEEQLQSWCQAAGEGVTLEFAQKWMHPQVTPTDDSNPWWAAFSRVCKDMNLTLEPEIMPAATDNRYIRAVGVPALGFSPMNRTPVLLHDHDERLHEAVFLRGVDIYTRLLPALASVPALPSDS

[2] = system: Hs766t; assay: In cell dynamic 13C NMR of hyperpolarized [1-13C] NAC at 1T, Hs766t cells; format: cell-based, human
From the text: FIG. 2A is a in cell dynamic ^13C NMR spectra of hyperpolarized [1-^13C] NAC at 1T NMR on 20×10^6 cells of human pancreatic tumor cell lines of Hs766t (left) and expanded spectra with 100 times magnifications at 2 seconds after the hyperpolarized [1-^13C] NAC injections in Hs766t (right);
(§1) In an embodiment, a cell dynamic ^13C NMR spectra of hyperpolarized [1-^13C] NAC at 1T NMR spectrometer on human pancreatic ductal adenocarcinoma (PDAC) cell lines, which have one of the worst prognosises among common cancers and need effective diagnostic approaches, Hs766t (FIG. 2A) and SU.86.86 (FIG. 2B), in both cases, the cell dynamic ^13C-nuclear magnetic resonance (NMR) spectra of the hyperpolarized [1-^13C] […]
(§2) All of the animal experiments were conducted in compliance with the Guide for the Care and Use of Laboratory Animal Resources, and experimental protocols were approved by the Animal Care and Use Committee, National Cancer Institute (NCI-CCR-ACUC) (National Research Council, Committee for the Update of the Guide for the Care and Use of Laboratory Animals. Guide for the care and use of laboratory animals. Washington, D.C.: Institute of Laboratory Animal Resources 2011). […] Both respiration (60-90 breaths per min) and temperature (35-37° C.) were maintained at a normal physiological range and monitored continuously during the animal experiment using the adjusted anesthesia.

[3] = system: SU.86.86; assay: In cell dynamic 13C NMR of hyperpolarized [1-13C] NAC at 1T, SU.86.86 cells; format: cell-based, human
From the text: FIG. 2B is a in cell dynamic ^13C NMR spectra of hyperpolarized [1-^13C] NAC at 1T NMR on 20×10^6 cells of human pancreatic tumor cell lines of SU.86.86 (left) and expanded spectra with 100 times magnifications at 2 seconds after the hyperpolarized [1-^13C] NAC injections in SU.86.86 (right);
as §1, §2

[4] = system: Hs766t tumor xenografts; assay: Dynamic 13C MR spectra and CSI of hyperpolarized [1-13C] NAC at 3T MRI, Hs766t tumor xenografts; format: in vivo, mouse
Protocol: (§3) All of the animal experiments were conducted in compliance with the Guide for the Care and Use of Laboratory Animal Resources, and experimental protocols were approved by the Animal Care and Use Committee, National Cancer Institute (NCI-CCR-ACUC) (National Research Council, Committee for the Update of the Guide for the Care and Use of Laboratory Animals. Guide for the care and use of laboratory animals. Washington, D.C.: Institute of Laboratory Animal Resources 2011). The human pancreatic ductal adenocarcinoma (PDAC) cell lines, […], and SU.86.86 cells, were purchased from Threshold Pharmaceuticals (Redwood City, Calif.). Human pancreatic tumor inoculated mice were generated by subcutaneous injection of 3×10^5 cells into the right hind legs of mice. Detailed conditions for cell culture and xenograft tumor development were as described previously in K. Yamamoto, J. R. Brender, T. Seki, S. Kishimoto, N. Oshima, R. Choudhuri, S. S. Adler, E. M. Jagoda, K. Saito, N. Devasahayam, P. L. Choyke, J. B. Mitchell, and M. C. Krishna, Cancer Res 2020, 80, 2087-2093, which is incorporated herein in its entirety by reference. […] Both respiration (60-90 breaths per min) and temperature (35-37° C.) were maintained at a normal physiological range and monitored continuously during the animal experiment using the adjusted anesthesia. […]

[5] = system: SU.86.86 tumor xenografts; assay: Dynamic 13C MR spectra of hyperpolarized [1-13C] NAC at 3T MRI, SU.86.86 tumor xenografts; format: in vivo; settings: SU.86.86 mouse leg xenograft, iv, FIGS. 4B, 4C
Protocol: as §3

[6] = Hyperpolarized 13C chemical shift imaging (CSI) in healthy mouse body and head after iv injection

CC(=O)N[C@@H](CS)[13C](=O)O [[1-^13C] NAC, [1-^13C] N-acetyl cysteine]
enzymatic conversion by acylase 1 [1]: immediate production of cysteine | NAC-GSH formation in cell culture ([2]; Hs766t, 20×10^6 cells, FIG. 2C): can produce NAC-glutathione (NAC-GSH) | cell membrane permeation ([2]; PDAC cell cultures (Hs766t and SU.86.86), suggested by the rapid kinetics of NAC-GSH formation): may permeabilize through cell membranes without active transport | NAC-GSH concentrations ([3]; SU.86.86 compared with Hs766t): Lower concentrations NAC-GSH | NAC-GSH formation in cell culture ([3]; SU.86.86, 20×10^6 cells, FIG. 2C): can produce NAC-glutathione (NAC-GSH) | amount of NAC-GSH formed ([4]; Hs766t compared with SU.86.86 tumors, FIGS. 4C and 4D): higher in Hs766t than in SU.86.86 tumors | NAC-GSH formation in tumor ([4]; Hs766t mouse leg xenograft, iv, FIGS. 4A, 4C): rapidly formed | NAC-GSH formation in tumor [5]: rapidly formed | time to global distribution throughout the mouse body after injection ([6]; healthy mouse, iv tail vein cannula, 13C CSI): ≤ 30 s | tissue distribution: lung region signal ([6]; healthy mouse, iv, 13C CSI, FIG. 6A): lower signal | metabolites in the liver and kidney regions ([6]; normal mice, in vivo, no imposed oxidative stress): not observed
